According to ChEMBL document CHEMBL1201862, “PubChem BioAssay data set” (2004):
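Protocol summary: plate cells (96-well), add compound at 5 concentrations, incubate 48 h, interpolate endpoints linearly. Abbreviation: GI50, concentration required for 50% inhibition of growth.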 Calls of active or inactive are those of the source. Rule as the data show it: active = GI50 up to about 1.1 µM and inactive = higher.

Assays:
Assay in all cases: NCI-60 cell line screen, 48 h
EKVX = system: EKVX
SNB-75 = system: SNB-75
A549 = system: A549
SF-295 = system: SF-295
HOP-62 = system: HOP-62
KM12 = system: KM12
DLD-1 = system: DLD-1
LOX IMVI = system: LOX IMVI
HCT-116 = system: HCT-116
HOP-92 = system: HOP-92
RPMI-8226 = system: RPMI-8226
HOP-18 = system: HOP-18
KM-20L2 = system: KM-20L2
SF-539 = system: SF-539
DMS-114 = system: DMS-114
IGROV-1 = system: IGROV-1
MDA-N = system: MDA-N
MDA-MB-435 = system: MDA-MB-435
PC-3 = system: PC-3
DU-145 = system: DU-145

| SMILES | GI50 (EKVX) | GI50 (SNB-75) | GI50 (A549) | GI50 (SF-295) | GI50 (HOP-62) | GI50 (KM12) | GI50 (DLD-1) | GI50 (LOX IMVI) | GI50 (HCT-116) | GI50 (HOP-92) | GI50 (RPMI-8226) | GI50 (HOP-18) | GI50 (KM-20L2) | GI50 (SF-539) | GI50 (DMS-114) | GI50 (IGROV-1) | GI50 (MDA-N) | GI50 (MDA-MB-435) | GI50 (PC-3) | GI50 (DU-145) |
| --- | --- | --- | --- | --- | --- | --- | --- | --- | --- | --- | --- | --- | --- | --- | --- | --- | --- | --- | --- | --- |
| COc1c2c(c(O)c3c4c(c(C)cc13)C1OC3(C(OC)OC5CC(C)(O)C(OC6CC(C)(O)C(O)C(C)O6)C(C)O5)OC1C(OC)(O4)C31CO1)C(=O)C(O)CC2OC1CC(C)(O)C(OC(C)=O)C(C)O1 (stereo not given) | < 0.01 µM (active) | < 0.01 µM (active) | < 0.01 µM (active) | < 0.01 µM (active) | < 0.01 µM (active) | < 0.01 µM (active) | 0.01 µM (active) | < 0.01 µM (active) | < 0.01 µM (active) | < 0.01 µM (active) | < 0.01 µM (active) | < 0.01 µM (active) | < 0.01 µM (active) | < 0.01 µM (active) | < 0.01 µM (active) | < 0.01 µM (active) |  |  |  |  |
| O=C(NC1C2CC3CC(C2)CC1C3)c1cc(/C=C/c2ccccc2)nc(S)n1 (stereo not given) | > 100 µM (inactive) | > 100 µM (inactive) | > 100 µM (inactive) | > 100 µM (inactive) | > 100 µM (inactive) | > 100 µM (inactive) | > 100 µM (inactive) | > 100 µM (inactive) | > 100 µM (inactive) |  | > 100 µM (inactive) |  | > 100 µM (inactive) | > 100 µM (inactive) | > 100 µM (inactive) | > 100 µM (inactive) |  |  |  |  |
| Nc1ccc(C2(c3ccc(N)cc3)C3CC4CC(C3)CC2C4)cc1 | 16.4 µM (inactive) |  |  | 0.0592 µM (active) | 13.6 µM (inactive) | 0.0975 µM (active) |  | 16.2 µM (inactive) | 21.9 µM (inactive) | 12.4 µM (inactive) |  |  |  |  |  | 9.59 µM (inactive) | 18.6 µM (inactive) | 14.7 µM (inactive) | 14.9 µM (inactive) |  |
| C#CCn1c(=O)c(C#N)c(O)c2cc3ccccc3nc21 | > 100 µM (inactive) | > 100 µM (inactive) | > 100 µM (inactive) | > 100 µM (inactive) | > 100 µM (inactive) | > 100 µM (inactive) | > 100 µM (inactive) | > 100 µM (inactive) | > 100 µM (inactive) | > 100 µM (inactive) | > 100 µM (inactive) | > 100 µM (inactive) |  |  | > 100 µM (inactive) | > 100 µM (inactive) |  |  |  |  |
| Cn1ccc(C(=O)NCCN(CCNC(=O)c2ccn(C)c(=O)c2O)CCNC(=O)c2ccn(C)c(=O)c2O)c(O)c1=O |  | > 100 µM (inactive) | > 100 µM (inactive) | > 100 µM (inactive) | > 100 µM (inactive) | > 100 µM (inactive) |  |  |  | > 100 µM (inactive) | > 100 µM (inactive) |  |  | > 100 µM (inactive) |  | > 100 µM (inactive) | > 100 µM (inactive) | > 100 µM (inactive) | > 100 µM (inactive) | > 100 µM (inactive) |
| CCN1CCC(O)(/C=C/c2ccccc2C)C(C(=O)/C=C/c2ccccc2C)C1 (stereo not given) | 4.06 µM (inactive) | 4.92 µM (inactive) | 3.1 µM (inactive) | 2.34 µM (inactive) | 1.94 µM (inactive) |  |  | 1.68 µM (inactive) | 1.78 µM (inactive) | 1.34 µM (inactive) |  |  |  | 2.31 µM (inactive) |  | 3.62 µM (inactive) | 2.67 µM (inactive) | 2.38 µM (inactive) | 1.93 µM (inactive) | 1.79 µM (inactive) |
| OCCOCn1nc(-c2ccccc2)nc1-c1cnccn1 | > 100 µM (inactive) | 35 µM (inactive) | > 100 µM (inactive) | > 100 µM (inactive) | > 100 µM (inactive) | > 100 µM (inactive) |  | > 100 µM (inactive) | > 100 µM (inactive) | > 100 µM (inactive) | > 100 µM (inactive) |  |  | > 100 µM (inactive) |  | > 100 µM (inactive) | > 100 µM (inactive) |  | > 100 µM (inactive) | > 100 µM (inactive) |
| Nc1ncnc2c1ncn2C=C=CCO |  | > 100 µM (inactive) |  | > 100 µM (inactive) | > 100 µM (inactive) | > 100 µM (inactive) |  | > 100 µM (inactive) | > 100 µM (inactive) | > 100 µM (inactive) | > 100 µM (inactive) |  |  |  |  |  | > 100 µM (inactive) | > 100 µM (inactive) | > 100 µM (inactive) | > 100 µM (inactive) |
| O=C(O)C(C(=O)O)P(=S)(S)c1ccccc1 (stereo not given) | > 100 µM (inactive) | > 100 µM (inactive) | > 100 µM (inactive) | > 100 µM (inactive) | > 100 µM (inactive) | > 100 µM (inactive) | > 100 µM (inactive) | > 100 µM (inactive) | > 100 µM (inactive) | > 100 µM (inactive) | > 100 µM (inactive) |  | > 100 µM (inactive) | > 100 µM (inactive) | > 100 µM (inactive) | > 100 µM (inactive) | > 100 µM (inactive) | > 100 µM (inactive) | > 100 µM (inactive) | > 100 µM (inactive) |
| NCCCCN(CCCN)Cc1ccccc1 | > 100 µM (inactive) | 20.1 µM (inactive) | > 100 µM (inactive) | > 100 µM (inactive) | > 100 µM (inactive) | > 100 µM (inactive) |  |  | > 100 µM (inactive) | > 100 µM (inactive) | > 100 µM (inactive) |  |  | > 100 µM (inactive) |  | 60 µM (inactive) |  | > 100 µM (inactive) | > 100 µM (inactive) | > 100 µM (inactive) |
| CSC(=N)NNC(=O)CCC(=O)Nc1ccccc1C(F)(F)F | > 100 µM (inactive) | > 52.2 µM (inactive) | > 100 µM (inactive) | > 100 µM (inactive) | > 100 µM (inactive) | > 100 µM (inactive) | > 100 µM (inactive) | > 100 µM (inactive) | > 100 µM (inactive) | > 100 µM (inactive) | > 100 µM (inactive) | > 100 µM (inactive) | > 44.7 µM (inactive) | > 79.8 µM (inactive) | > 100 µM (inactive) | > 100 µM (inactive) |  |  |  |  |
| O=C(NC1C(O)C(O)C(CO)OC1n1cc(F)c(=O)[nH]c1=O)OCc1ccccc1 (stereo not given) |  | > 100 µM (inactive) | > 100 µM (inactive) | > 100 µM (inactive) | > 100 µM (inactive) | > 100 µM (inactive) | > 100 µM (inactive) | > 100 µM (inactive) | > 100 µM (inactive) | > 100 µM (inactive) | > 100 µM (inactive) | > 100 µM (inactive) | > 100 µM (inactive) |  | > 100 µM (inactive) |  |  |  |  |  |
| O=Cc1ccc(CCl)cc1 | 45.6 µM (inactive) | > 10 µM (inactive) | 39.2 µM (inactive) | 17.4 µM (inactive) |  | 23.5 µM (inactive) | 16.1 µM (inactive) | 11 µM (inactive) | 14.5 µM (inactive) | 27.7 µM (inactive) |  | 14.4 µM (inactive) | 23.6 µM (inactive) | 17.1 µM (inactive) | 6.93 µM (inactive) | 20.8 µM (inactive) |  |  |  |  |
| c1ccc2c(c1)SC1Sc3ccccc3[S+]21 (stereo not given) | 22 µM (inactive) | 38.4 µM (inactive) | 27.4 µM (inactive) | 53.2 µM (inactive) | 31.6 µM (inactive) | 16.4 µM (inactive) |  | 18.5 µM (inactive) | 22.7 µM (inactive) | 10.4 µM (inactive) | 12.9 µM (inactive) |  |  | 23.2 µM (inactive) |  | 22 µM (inactive) | 22.4 µM (inactive) | 18.8 µM (inactive) | 28.3 µM (inactive) | 21.6 µM (inactive) |
| CCCCC1=C(Br)C(=C(Br)Br)OC1=O | 2.49 µM (inactive) | 5.64 µM (inactive) | 17.1 µM (inactive) | 10.6 µM (inactive) | 7.96 µM (inactive) | 3.29 µM (inactive) | 1.9 µM (inactive) | 1.87 µM (inactive) | 3.02 µM (inactive) | 11 µM (inactive) | 0.379 µM (active) | 3.94 µM (inactive) | 8.65 µM (inactive) | 3.26 µM (inactive) | 2.07 µM (inactive) | 2.25 µM (inactive) |  |  |  |  |
| C(/C=N/c1ccccc1)=C(/Nc1ccccc1)C12CC3CC(CC(C3)C1)C2 | 20.7 µM (inactive) | 20.9 µM (inactive) | 24.1 µM (inactive) | 16.6 µM (inactive) | 19.2 µM (inactive) | 17 µM (inactive) |  | 12.9 µM (inactive) | 13.2 µM (inactive) | 25.2 µM (inactive) |  |  |  |  |  | 17.6 µM (inactive) | 13.8 µM (inactive) | 15.2 µM (inactive) | 14.9 µM (inactive) | 19.3 µM (inactive) |
| CCN(CC)Cc1ccc2cccnc2c1O | 2.24 µM (inactive) | 0.577 µM (active) | 6.34 µM (inactive) | 3.48 µM (inactive) | 4.5 µM (inactive) |  |  | 3.84 µM (inactive) | 3.59 µM (inactive) | 11.6 µM (inactive) | 3.1 µM (inactive) |  |  | 6.58 µM (inactive) |  | 2.77 µM (inactive) | 10.6 µM (inactive) | 9.42 µM (inactive) | 6.05 µM (inactive) | 10.8 µM (inactive) |
| CC1CCC(O)/C=C/C(=O)OC(C)C(O)/C=C/C(=O)O1 (stereo not given) | > 100 µM (inactive) | > 100 µM (inactive) | > 100 µM (inactive) | > 100 µM (inactive) | > 100 µM (inactive) | > 100 µM (inactive) |  | > 100 µM (inactive) | > 60.5 µM (inactive) | 52.8 µM (inactive) | 74.1 µM (inactive) |  |  | > 86.7 µM (inactive) |  | > 100 µM (inactive) | > 95.9 µM (inactive) | > 100 µM (inactive) | > 100 µM (inactive) | > 100 µM (inactive) |
| NC(=O)c1coc(C2OC(CO)C(O)C2O)n1 (stereo not given) | > 100 µM (inactive) |  | > 100 µM (inactive) |  | > 100 µM (inactive) | > 100 µM (inactive) |  | > 100 µM (inactive) | > 100 µM (inactive) | > 100 µM (inactive) | > 100 µM (inactive) | > 100 µM (inactive) | > 100 µM (inactive) | > 100 µM (inactive) | > 100 µM (inactive) | > 100 µM (inactive) |  |  |  |  |
